We go through two compounds from patent US20180251483A1, “THIOCYANATE SALTS FOR ANTI-INFLAMMATION” (National Jewish Health, priority 2015, published 2018).

Assay [1] in a line: Catalase activity: H2O2 consumption followed with a hydrogen peroxide selective electrode. In kind it is biochemical. As to the method:
FIG. 4 is a line graph showing effects of 1 mM NaSCN on the consumption of H2O2 by 10150-Cl at a fixed concentration of 12.5 μM and various H2O2 concentrations. Legend: Cmpd 10150-Cl (circles); Cmpd 10150-Cl+SCN (1 mM) (triangles).
To test whether SCN was acting as a competing substrate in the catalase activity one examined the change in 10150-Cl catalase activity by following the disappearance of H2O2 over time with a H2O2 selective electrode in the presence or absence of 1 mM NaSCN.
Experimental Conditions: Effects of 1 mM NaSCN on the consumption of H2O2 by 10150-Cl was investigated at a fixed concentration of 12.5 μM and various H2O2 concentrations. H2O2 consumption was followed over time with a hydrogen peroxide selective electrode (HPO) using a free radical analyzer (WPI). Changes in pA were converted to H2O2 using a 5 point H2O2 standard curve. The data was fitted as a linear curve using Prizm software. The rate constant for 10150-Cl was 0.09±0.004 min^−1 and in the presence of 1 mM NaSCN was decreased to 0.02±0.004 min^−1.

Assay [2] has as its system Human bronchial epithelial cells (HBE). Kind of assay: Hypochlorite-induced injury of human bronchial epithelial cells, MTT viability assay. The conditions noted are these: 250 μM HOCl for 30 minutes, 10 μM compound, MTT 24 hours post exposure, compared to 10150-Cl or NaSCN. In kind it is cell-based. As for the experimental part:
Bins (left to right): PBS (phosphate buffered saline); 250 uM HOCl; 250 uM HOCl+10 uM 10150-Cl; 250 uM HOCL+10 uM 10150-SCN; 250 uM HOCL+10 uM NaSCN.
Human bronchial epithelial cells (HBE) were exposed to 250 μM of hypochlorite (HOCl) for 30 minutes in the presence or absence of 10 μM of 10150-Cl, 10150-SCN, or NaSCN and cell injury was assessed 24 hours post HOCl exposure using the MTT viability assay.

A further assay has as its system rat brain homogenates. Kind of assay: Iron/ascorbate-initiated lipid peroxidation of rat brain homogenates, TBARS assay. In kind it is biochemical. The conditions noted are these: comparison of the two salts. As to the method:
Legend: Cmpd 10150-Cl (circles); Cmpd 10150-SCN (boxes).
The ability of the salts of the invention to inhibit lipid peroxidation was assessed as described by Ohkawa et al. (Anal. Biochem. 95:351 (1979)) and Yue et al. (J. Pharmacol. Exp. Ther. 263:92 (1992)). Iron and ascorbate can be used to initiate lipid peroxidation in tissue homogenates and the formation of thiobarbituric acid reactive species (TBARS) measured. Lipid peroxidation causes cell damage by radicals, which destroys lipids in cell membranes resulting in oxidative and inflammatory injury.
Both the chloride and thiocyanate salts of 10150 have similar lipid peroxide inhibition. Lipid peroxidation of rat brain homogenates was initiated with iron/ascorbate in the presence or absence of various concentrations of 10150-Cl or 10150-SCN. Lipid peroxidation was quantified using the TBARS assay with malondialdehyde standards. The data was normalized and curve fitted to determine the inhibitory concentrations that decreased lipid peroxidation by one-half (IC50).

For assay [3] the following is noted: stated as known; cited from earlier work.
Assay [4] can be described thus: Oxygen formation from H2O2 followed with an oxygen selective electrode (catalase to haloperoxidase conversion). In kind it is biochemical. As for the experimental part: FIG. 5 is a bar graph showing the inhibition of oxygen formation by 10150-Cl in the presence of hydrogen peroxide and thiocyanate. Bins (left to right); 25 uM Cmpd 10150; 50 uM Cmpd 10150. Legend: control (open); SCN 1 mM (closed).
It was examined whether SCN was being utilized as a substrate in a peroxidase reaction by looking at the inhibition of oxygen formation. If 10150-Cl was utilizing SCN along with H2O2, then no oxygen would be generated (see Eq 2).
To examine the rate of oxygen formation in the presence of 10150-Cl, H2O2 in the presence or absence of NaSCN, one utilized an oxygen selective electrode with a free radical analyzer (WPI). Changes in pA were converted to O2 using the difference of the O2 concentration in a saturated solution minus that of the solution made anaerobic by the addition of dithionite.
Experimental Conditions: Conversion of catalase activity to haloperoxidase activity of 10150-Cl with the addition of thiocyanate (SCN). Oxygen formation was followed with an oxygen selective electrode in a reaction mixture containing 10150 at either 25 or 50 μM and 1 mM H2O2 in the presence or absence of 1 mM SCN.

Turning to “[5,10,15,20 tetrakis(1,3-diethylimidazolium-2-yl)porphyrinato] manganese (III) pentathiocyanate [10150-SCN]”, the catalase activity entry in assay [1] (comparison of the 10150-Cl and SCN salts) is “lower catalase activity than 10150-Cl salt”. The “protection against hypochlorite-mediated epithelial cell injury” value in assay [2] was “synergistic effects”. The “IC50 of lipid peroxidation (TBARS formation)” value in the assay with rat brain homogenates is reported as “not statistically different”.

For the compound `CCN1C=CN(CC)C1=C1C2=NC(=C(c3n(CC)cc[n+]3CC)C3=NC(=C(c4n(CC)cc[n+]4CC)c4ccc([n-]4)C(c4n(CC)cc[n+]4CC)=C4C=CC1=N4)C=C3)C=C2.[Cl-].[Cl-].[Cl-].[Cl-].[Cl-].[Mn+3]` [10150-Cl, [5,10,15,20 tetrakis(1,3-diethylmidazolium-2-yl)porphyrinato] manganese (III) pentachloride], in assay [1] (12.5 μM compound, various H2O2 concentrations, 1 mM NaSCN), the “rate constant of H2O2 consumption in the presence of 1 mM NaSCN” value was 0.02 ± 0.004 min⁻¹. Moreover, the “rate constant of H2O2 consumption” value in assay [1] (12.5 μM compound, various H2O2 concentrations, absence of NaSCN) came to 0.09 ± 0.004 min⁻¹. In addition, the “IC50 of lipid peroxidation (TBARS formation)” value with rat brain homogenates is given as “not statistically different”. In assay [3], the “catalase activity (dismutation of hydrogen peroxide into oxygen and water)” value is recorded as “known to possess catalase activity”. In assay [4] (10150 at 25 or 50 μM, 1 mM H2O2, presence vs absence of 1 mM SCN), the “oxygen formation on addition of SCN” value is on record as “dramatically inhibited the formation of oxygen”. Besides, the haloperoxidase activity entry in assay [4] (thiocyanate as substrate, generating HOSCN) is given as “has haloperoxidase activity”.
